Biological target: T1, Androgen receptor (Homo sapiens) (UniProt P10275)
T1 sequence (whole entry): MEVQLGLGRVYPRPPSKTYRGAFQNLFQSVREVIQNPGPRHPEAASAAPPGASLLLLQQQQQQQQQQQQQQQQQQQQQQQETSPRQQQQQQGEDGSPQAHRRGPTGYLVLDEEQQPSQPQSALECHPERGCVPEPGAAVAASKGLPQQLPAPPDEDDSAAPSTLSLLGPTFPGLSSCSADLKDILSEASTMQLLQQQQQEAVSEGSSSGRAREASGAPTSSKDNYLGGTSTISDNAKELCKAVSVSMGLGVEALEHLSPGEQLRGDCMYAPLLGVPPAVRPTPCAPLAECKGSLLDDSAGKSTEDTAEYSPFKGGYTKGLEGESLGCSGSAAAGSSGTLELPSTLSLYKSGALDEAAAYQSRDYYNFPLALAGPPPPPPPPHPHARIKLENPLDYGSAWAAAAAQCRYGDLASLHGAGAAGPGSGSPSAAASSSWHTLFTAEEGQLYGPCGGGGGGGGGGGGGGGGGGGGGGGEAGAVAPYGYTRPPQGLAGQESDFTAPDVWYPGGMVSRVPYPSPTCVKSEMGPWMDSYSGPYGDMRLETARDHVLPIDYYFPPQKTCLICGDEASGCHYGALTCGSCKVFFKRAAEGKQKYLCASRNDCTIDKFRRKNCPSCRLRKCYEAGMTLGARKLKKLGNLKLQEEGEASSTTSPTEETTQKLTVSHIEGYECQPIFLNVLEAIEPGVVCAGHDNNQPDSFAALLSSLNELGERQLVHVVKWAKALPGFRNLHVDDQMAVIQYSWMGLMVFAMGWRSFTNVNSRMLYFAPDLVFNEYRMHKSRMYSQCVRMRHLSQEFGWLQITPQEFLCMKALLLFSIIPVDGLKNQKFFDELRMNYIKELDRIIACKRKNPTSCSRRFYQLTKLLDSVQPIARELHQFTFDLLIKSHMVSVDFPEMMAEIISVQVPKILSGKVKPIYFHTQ
Details: CV-1
Description: Relative stimulatory activity compared to 5-alpha-DHT in CV-1 cells expressing androgen receptor

## CC12CCC(=O)CC1C[C@@H](F)[C@@H]1[C@@H]2CCC2(C)[C@H]1CC[C@]2(C)O (stereo partly specified)
  RSA: 418

— ChEMBL document CHEMBL1132232, “7alpha-Iodo and 7alpha-fluoro steroids as androgen receptor-mediated imaging agents” (J Med Chem, 1999)
